Assay results published in paper PMC3913620, “Preclinical Evaluation of the Novel, Orally Bioavailable Selective Inhibitor of Nuclear Export (SINE) KPT-335 in Spontaneous Canine Cancer: Results of a Phase I Study” (PLoS ONE, 2014).
Where “and” joins values, the source holds several entries; their conditions need not be identical. Equal values may be shown once.

Key:
[1] = dog, in vivo
CLBL1 DLBCL cells = experiment: MTS cell viability assay, CLBL1; type: cell-based, canine; conditions: Canis lupus familiaris, CLBL-1, 72 hours, read-out: IC50 (± S.D.), CLBL1
Protocol: (§1) Cryopreserved tumor cells obtained from sterile lymph node biopsy samples from dogs with diffuse large B cell lymphoma (DLBCL) were cultured with 100 ng/mL of megaCD40L (Enzo Life Science, Plymouth Meeting, PA) as previously described, [27]. The human T-cell leukemia cell line, Jurkat, was from the American Type Culture Collection (ATCC, Manassas, VA) and cultured in RPMI1640 medium (Gibco/BRL, Grand Island, NY) containing 10% fetal bovine serum (FBS; Atlas Biologicals, Fort Collins, CO), 2-mercaptoethanol (Gibco/BRL), HEPES, L-glutamine, sodium pyruvate (Mediatech Inc., Manassas, VA), non-essential amino acids (Sigma Aldrich, St. Louis, MO), and Primocin (Invivogen, San Diego, CA). […]
(§2) Cell viability for lymphoid lines was determined by the MTS (3-(4, 5-dimethylthiazol-2-yl)-5-(3-carboxymethoxyphenyl)-2-(4-sulfophenyl)-2H-tetrazolium) assay using CellTiter 96® AQueous One Solution Cell Proliferation Assay Kit (Promega, Madison, WI). […] After 72 hours, 20 µL of MTS solution was added to each well and cells were incubated for another 4 hours before measuring absorbance at 490 nm using a Wallac Victor 1420 Multilabel Counter (Perkin Elmer, Waltham, MA). The IC50 of SINE was calculated using Prism 6 software (GraphPad Software, Inc., La Jolla, CA).

[2] = system: dogs with spontaneous cancer (NHL, mast cell tumor, osteosarcoma); experiment: Phase I dose escalation study, tumor response; type: in vivo
Protocol: This study was a Phase I dose escalating, open label assessment of the safety and biologic activity of KPT-335 in client owned dogs with spontaneous malignancies. Assessment of clinical toxicities and tumor response was performed at each visit. Dogs were evaluated for hematologic and biochemical toxicities every 7 days with routine bloodwork. The initial dose of 1 mg/kg orally twice per week (Monday/Thursday or Tuesday/Friday) was based on previous data from normal laboratory dogs (data not shown) and dose escalation was set at 0.25 mg/kg increments in cohorts of 3 until dose limiting toxicity (DLT) was identified. The DLT was considered to be any grade 3 or 4 hematologic or non-hematologic toxicity based on the established VCOG-CTCAE criteria. […] Disease progression or signs and symptoms definitely related to disease were not considered adverse events (AEs). The maximum tolerated dose (MTD) was considered to be one dose below that at which DLT occurred.
(§3) Tumor assessments were completed prior to study entry, and days 7, 14, 21, and 28. For dogs that continued beyond 4 weeks, response assessments were performed every 2 weeks thereafter, or at the time of suspected tumor progression. Responses were assessed by the investigator according to pre-defined protocol criteria. The response in dogs with assessable disease was performed by clinical examination, ultrasonography, or thoracic radiography. Many lesions were not amenable for quantitative radiographic imaging, but were followed either by serial clinical examination (superficial lesions; palpable lymph nodes) or by ultrasonography (abdominal lymph nodes). Thoracic lesions were assessed by thoracic radiography.
(§4) The response in dogs with measurable disease was judged by the investigator on the basis of Response Evaluation Criteria for Peripheral Nodal Lymphoma in dogs (v1.0). A complete response (CR) was defined as disappearance of all disease on two measurements separated by a minimum period of 3 weeks. A partial response (PR) was defined as greater than 30% reduction in the sum of the longest diameter of the target lesions documented by two assessments separated by at least 3 weeks. An increase of >20% in the size of all measurable tumor areas as measured by the sum of longest diameters of the target lesions taken as reference the smallest sum since initiation of therapy, or the appearance of any new lesion(s) would qualify as progressive disease (PD). […] Dogs who had no evidence of tumor progression and who had not experienced any unacceptable toxicity were eligible for extended treatment cycles. Dose escalation from twice per week administration to three times per week administration in an individual dog was permitted if the dog was tolerating therapy.

[3] = system: primary canine DLBCL cells; experiment: MTS cell viability assay, primary canine DLBCL samples; type: cell-based; conditions: Canis lupus familiaris, primary sample #1, 72 hours, read-out: IC50, DLBCL#1
Protocol: Cryopreserved tumor cells obtained from sterile lymph node biopsy samples from dogs with diffuse large B cell lymphoma (DLBCL) were cultured with 100 ng/mL of megaCD40L (Enzo Life Science, Plymouth Meeting, PA) as previously described, [27]. The human T-cell leukemia cell line, Jurkat, was from the American Type Culture Collection (ATCC, Manassas, VA) and cultured in RPMI1640 medium (Gibco/BRL, Grand Island, NY) containing 10% fetal bovine serum (FBS; Atlas Biologicals, Fort Collins, CO), 2-mercaptoethanol (Gibco/BRL), HEPES, L-glutamine, sodium pyruvate (Mediatech Inc., Manassas, VA), non-essential amino acids (Sigma Aldrich, St. Louis, MO), and Primocin (Invivogen, San Diego, CA). The canine DLBCL cell line CLBL1 obtained from Dr. Barbara Rütgen (University of Vienna, Austria), [29] and human DLBCL cell lines OCI-Ly3 [30], [31] and OCI-Ly10 [32] obtained from Dr. Anne Novak (Mayo Clinic Cancer Center, Rochester, MN) were cultured in complete Iscove’s Modified Dulbecco’s medium (IMDM) containing 20% FBS, L-glutamine, and Primocin. All cells were maintained at 37°C in a humidified 5% CO2 atmosphere. The following additional canine tumor cell lines were used to evaluate response to SINE compounds: C2, mast cell tumor line provided by Dr. George Caughey, UCSF, San Francisco, CA [33]; OSA16, osteosarcoma cell line, provided by Dr. Jaime Modiano, UM, Minneapolis, MN [34]; and 323610-3, malignant melanoma cell line, provided by Dr. Michael Kent, UCD, Davis, CA [35]. All cell lines were cultured in complete RPMI media containing 10% FBS, antibiotic/antimycotic, HEPES, sodium pyruvate, nonessential amino acids and Glutamax (media supplements from Gibco).
Cell viability for lymphoid lines was determined by the MTS (3-(4, 5-dimethylthiazol-2-yl)-5-(3-carboxymethoxyphenyl)-2-(4-sulfophenyl)-2H-tetrazolium) assay using CellTiter 96® AQueous One Solution Cell Proliferation Assay Kit (Promega, Madison, WI). Briefly, for lymphoid cell lines, 5×10^4 cells (or 1×10^5 primary DLBCL cells) were cultured in 100 µL of complete medium in 96-well plates in the presence of SINE compounds. After 72 hours, 20 µL of MTS solution was added to each well and cells were incubated for another 4 hours before measuring absorbance at 490 nm using a Wallac Victor 1420 Multilabel Counter (Perkin Elmer, Waltham, MA). The IC50 of SINE was calculated using Prism 6 software (GraphPad Software, Inc., La Jolla, CA).

dogs with NHL = experiment: Dose expansion study, tumor response; type: in vivo; conditions: 1.5 mg/kg Monday/Wednesday/Friday
Protocol: as §3, §4

OCI-Ly10 DLBCL cells = experiment: MTS cell viability assay, OCI-Ly10; type: cell-based, human; conditions: Homo sapiens, OCI-Ly10, 72 hours, read-out: IC50 (± S.D.), OCI-Ly10
Protocol: as §1, §2

Which tolerable doses [1] does the source give for `O=C(/C=C\n1cnc(-c2cc(C(F)(F)F)cc(C(F)(F)F)c2)n1)NNc1ccccn1` [KPT-335] here?
The tolerable doses was “below 3 mg/kg”.

What about the IC50 (CLBL1 DLBCL cells) of the same compound?
The IC50 was 8.5 ± 4.1 nM.

What about the “clinical benefit (CB: PR or SD >4 weeks), dogs with NHL” value [2] of the same compound?
The value was 9/14.

What about the “clinical benefit, dogs with NHL” value [2] of the same compound?
The value was 64%.

And the “duration of PR, individual dogs” value [2]?
The value was 71 days and 246 days.

What about the “median TTP, responding dogs with NHL” value [2] of the same compound?
Its value is 66 days.

What about the “median duration of treatment, dogs with NHL” value [2] of the same compound?
The value was 10 weeks.

And the “range of duration of treatment, dogs with NHL” value [2]?
The value was 5–35 weeks.

And the “median duration of SD” value ([2]; 8 dogs with SD)?
The value was 58.5 days.

What about the “range of duration of SD” value ([2]; 8 dogs with SD) of the same compound?
The value was 28 to 84 days.

And the “TTP range, all dogs” value ([2]; 17 dogs)?
Its value is 14 to 246 days.

And the “dogs with PD in the first 4 weeks of therapy” value ([2]; 17 dogs)?
The value was 7.

And the “median TTP, all dogs” value ([2]; 17 dogs)?
Its value is 35 days.

And the “stable disease (SD), number of dogs with NHL” value ([2]; SD for greater than 28 days)?
Its value is 7.

What about the “stable disease (SD), number of dogs” value ([2]; all 17 dogs) of the same compound?
The value was 8.

And the “dose at which biologic activity was observed” value ([2]; lowest dose level)?
The value was 1 mg/kg.

What about the IC50 [3] of the same compound?
The IC50 was 2 nM.

What about the CB rate (dogs with NHL) of the same compound?
Its CB rate is 67%.

And the “TTP range, responders” value (dogs with NHL)?
The value was 35 to 354 days.

What about the “clinical benefit (CB), dogs” value (dogs with NHL) of the same compound?
Its value is 4/6.

And the “dogs with SD for longer than 28 days” value (dogs with NHL)?
Its value is 4.

And the “median TTP, responders” value (dogs with NHL)?
The value was 83 days.

What about the “duration of PR, individual dogs” value (dogs with NHL; 1.5 mg/kg) of the same compound?
The value was 35 days and 354 days.

What about the “TTP range, all dogs” value (dogs with NHL; 6 dogs with NHL) of the same compound?
Its value is 13 to 354 days.

And the “median TTP, all dogs” value (dogs with NHL; 6 dogs with NHL)?
The value was 55 days.

And the IC50 (OCI-Ly10 DLBCL cells)?
Its IC50 is 41.8 ± 21 nM.
